# Experimental data from US20130225548A1, “Pyridine Derivative and Medicinal Agent” (NIPPON SHINYAKU CO., LTD., priority 2010, published 2013).
# pIC50: −log10 of the molar value. Structures can show the parent of a compound that is named as a salt.
# Molecular target: T1, Syk tyrosine kinase (Homo sapiens, UniProt P43405)
# T1 construct: purchased Carna Biosciences, Inc
# Experiment: Test for Syk tyrosine kinase inhibitory activity (ELISA)
# Assay type: biochemical
# Conditions: Syk tyrosine kinase (Carna Biosciences), 25 μM ATP in substrate solution, 30° C. 1 hour, n=2; read-out: Evaluation (IC50, concentration inhibiting the tyrosine kinase activity at 50%)
# Description: Test Example 1: Test for Syk Tyrosine Kinase Inhibitory Activity
# 1. Preparation of Test Substance
# A test substance was prepared at 10 mM in dimethyl sulfoxide (DMSO), and further diluted with DMSO to concentrations of 1000, 300, 100, 30, 10, 3, 1, 0.3, 0.1, 0.03, and 0.01 μM. The resulting solutions were further diluted to 20-fold with an assay buffer, whereby test substance solutions were prepared. As a negative control, a solution obtained by diluting DMSO to 20-fold with an assay buffer was used. As the assay buffer, a buffer containing 15 mM Tris-HCl (pH 7.5), 0.01 (v/v) % Tween-20, and 1 mM dithiothreitol was used.
# 2. Measurement of Syk Tyrosine Kinase Inhibitory Activity
# The activity was measured using the ELISA method. Each of the test substance solutions was added to a streptavidine-coated 96-well place (DELFIA Strip Plate 8×12 wells, PerkinElmer Co., Ltd,) at 10 μL per well (n=2), and a substrate solution (625 nM biotinylated peptide substrate, 25 μM ATP, 25 mM MgCl2, 15 mM Tris-HCl (pH 7.5), 0.01 (v/v) % Tween-20, 1 mM dithiothreitol) was added to the plate at 20 μL per well, and the resulting mixture was stirred. Finally, Syk tyrosine kinase (Carna Biosciences, Inc.) (previously diluted to 0.025 nM with the assay buffer) was added to the plate at 20 μL per well, and the resulting mixture was stirred. A reaction was allowed to proceed at 30° C. for 1 hour. After the plate was washed 4 times with a washing buffer (50 mM Tris-HCl (pH 7.5, 150 mM NaCl, 0.02 (v/v) % Tween-20), a blocking buffer (0.1% bovine serum albumin, 50 mM Tris-HCl (pH 7.5), 150 mM NaCl, 0.02 (v/v) % Tween-20) was added to the plate at 150 μL per well, and blocking was performed at 30° C. for 30 minutes. Then, the blocking buffer was removed, and a horseradish peroxidase-labeled anti-phosphorylated tyrosine antibody (BD Biosciences, Inc.) (previously diluted to 10000-fold with the blocking buffer) was added to the plate at 100 μL per well, and the plate was incubated at 30° C. for 30 minutes. After the plate was washed 4 times with the washing buffer, a 3,3′,5,5′-tetramethylbenzidine solution (Sigma-Aldrich Co., Ltd.) was added to the plate at 100 μL per well to develop the color for 10 minutes. The reaction was stopped by adding 0.1 M sulfuric acid at 100 μL per well. The absorbance at 450 nm was measured using a microplate reader (Multiskan F C, Thermo Fisher Scientific K,K.).
# 3. Analysis of Measurement Results
# A non-linear regression analysis was performed for the measured absorbance using the SAS system (SAS institute. Inc.), and a concentration of each of the test substances: inhibiting the tyrosine kinase activity at 50% (IC50 ) was calculated. A case where IC50 is […] was evaluated as ***, a case where IC50 is 5 nM or more and less than 50 nM was evaluated as **, and a case where IC50 is 50 nM or more and less than 500 nM was evaluated as *, which are shown in the column of evaluation item.
row,pIC50,Structure (SMILES)
1,6.30 to 7.30,"CC(=O)N1CCCN(c2ccc(-c3cc(C4CC4)cc(Nc4cc(C#N)ccn4)n3)cn2)CC1 [Example 9, 2-{[6′-(4-acetyl-1,4-diazepan-1-yl)-4-cyclopropyl-2,3′-bipyridin-6-yl]amino}pyridine-4-carbonitrile hydrochloride]"
2,7.30 to 8.30,"N#Cc1ccnc(Nc2cc(C3CC3)cc(-c3ccc(N4CCCN(C(N)=O)CC4)nc3)n2)c1 [Example 10, 4-{6-[(4-cyanopyridin-2-yl)amino]-4-cyclopropyl-2,3′-bipyridin-6′-yl}-1,4-diazepane-1-carboxamide hydrochloride]"
3,6.30 to 7.30,"N#Cc1ccnc(Nc2cc(C3CC3)cc(-c3ccc(N4C[C@@H](O)CC4=O)nc3)n2)c1 [Example 11, 2-({4-cyclopropyl-6′-[(4S)-4-hydroxy-2-oxopyrrolidin-1-yl]-2,3′-bipyridin-6-yl}amino)pyridine-4-carbonitrile hydrochloride]"
4,6.30 to 7.30,"N#Cc1ccnc(Nc2cc(C3CC3)cc(-c3ccc(N[C@H]4CC[C@H](O)CC4)nc3)n2)c1 [Example 12, 2-({4-cyclopropyl-6′-[(trans-4-hydroxycyclohexyl)amino]-2,3′-bipyridin-6-yl}amino)pyridine-4-carbonitrile hydrochloride]"
5,7.30 to 8.30,"N#Cc1ccnc(Nc2cc(C3CC3)cc(-c3ccc4c(c3)ncn4CCN)n2)c1 [Example 13, 2-({6-[1-(2-aminoethyl)-1H-benzimidazol-5-yl]-4-cyclopropylpyridin-2-yl}amino)pyridine-4-carbonitrile hydrochloride]"
6,7.30 to 8.30,"N#Cc1ccnc(Nc2cc(C3CC3)cc(-c3ccc4c(c3)ncn4[C@H]3CC[C@H](O)CC3)n2)c1 [Example 14, 2-({4-cyclopropyl-6-[1-(trans-4-hydroxycyclohexyl)-1H-benzimidazol-5-yl]pyridin-2-yl}amino)pyridine-4-carbonitrile hydrochloride]"
7,7.30 to 8.30,"N#Cc1ccnc(Nc2cc(C3CC3)cc(-c3ccc4c(c3)ncn4C3CCOCC3)n2)c1 [Example 16, 2-({4-cyclopropyl-6-[1-tetrahydro-2H-pyran-4-yl)-1H-benzimidazol-5-yl]pyridin-2-yl}amino)pyridine-4-carbonitrile hydrochloride]"
8,6.30 to 7.30,"N#Cc1ccnc(Nc2cc(C3CC3)cc(-c3ccc(C#N)nc3)n2)c1 [Example 17, 6-[(4-cyanopyridin-2-yl)amino]-4-cyclopropyl-2,3′-bipyridine-6′-carbonitrile hydrochloride]"
9,7.30 to 8.30,"N#Cc1ccnc(Nc2cc(C3CC3)cc(-c3ccc(N)nc3)n2)c1 [Example 18, 2-[(6′-amino-4-cyclopropyl-2,3′-bipyridin-6-yl)amino]pyridine-4-carbonitrile hydrochloride]"
10,> 8.30,"N#Cc1ccnc(Nc2cc(C3CC3)cc(-c3ccc(NCCN)nc3)n2)c1 [Example 19, 2-({6′-[(2-aminoethyl)amino]-4-cyclopropyl-2,3′-bipyridin-6-yl}amino)pyridine-4-carbonitrile dihydrochloride]"
11,7.30 to 8.30,"N#Cc1ccnc(Nc2cc(C3CC3)cc(-c3ccc(N4CCC(O)CC4)nc3)n2)c1 [Example 20, 2-{[4-cyclopropyl-6′-(4-hydroxypiperidin-1-yl)-2,3′-bipyridin-6-yl]amino}pyridine-4-carbonitrile hydrochloride]"
12,7.30 to 8.30,"COCCNc1ccc(-c2cc(C3CC3)cc(Nc3cc(C#N)ccn3)n2)cn1 [Example 21, 2-({4-cyclopropyl-6′-[(2-methoxyethyl)amino]-2,3′-bipyridin-6-yl}amino)pyridine-4-carbonitrile hydrochloride]"
13,7.30 to 8.30,"N#Cc1ccnc(Nc2cc(C3CC3)cc(-c3ccc(N4CC[C@@H](O)C4)nc3)n2)c1 [Example 22, 2-({4-cyclopropyl-6′-[(3R)-3-hydroxypyrrolidin-1-yl]-2,3′-bipyridin-6-yl}amino)pyridine-4-carbonitrile hydrochloride]"
14,7.30 to 8.30,"N#Cc1ccnc(Nc2cc(C3CC3)cc(-c3ccc(NCCCO)nc3)n2)c1 [Example 23, 2-({4-cyclopropyl-6′-[(3-hydroxypropyl)amino]-2,3′-bypyridin-6-yl}amino)pyridine-4-carbonitrile hydrochloride]"
15,7.30 to 8.30,"CC(C)(CO)CNc1ccc(-c2cc(C3CC3)cc(Nc3cc(C#N)ccn3)n2)cn1 [Example 24, 2-({4-cyclopropyl-6′-[(3-hydroxy-2,2-dimethylpropyl)amino]-2,3′-bipyridin-6-yl}amino)pyridine-4-carbonitrile hydrochloride]"
16,7.30 to 8.30,"N#Cc1ccnc(Nc2cc(C3CC3)cc(-c3ccc(N4CC[C@H](O)C4)nc3)n2)c1 [Example 25, 2-({4-cyclopropyl-6′-[(3S)-3-hydroxypyrrolidin-1-yl]-2,3′-bipyridin-6-yl}amino)pyridine-4-carbonitrile hydrochloride]"
17,7.30 to 8.30,"N#Cc1ccnc(Nc2cc(C3CC3)cc(-c3ccc(N4CCC(CO)CC4)nc3)n2)c1 [Example 26, 2-({4-cyclopropyl-6′-[4-(hydroxymethyl)piperidin-1yl]-2,3′-bipyridin-6-yl}amino)pyridine-4-carbonitrile hydrochloride]"
18,7.30 to 8.30,"N#Cc1ccnc(Nc2cc(C3CC3)cc(-c3ccc(N4CCSCC4)nc3)n2)c1 [Example 27, 2-{[4-cyclopropyl-6′-(thiomorphoiln-4-yl)-2,3′-bipyridin-6-yl]amino}pyridine-4-carbonitrile hydrochloride]"
19,7.30 to 8.30,"N#Cc1ccnc(Nc2cc(C3CC3)cc(-c3ccc(N4CCC(N)CC4)nc3)n2)c1 [Example 28, 2-{[6′-(4-aminopiperidin-1-yl)-4-cyclopropyl-2,3′-bipyridin-6-yl]amino}pyridine-4-carbonitrile dihydrochloride]"
20,7.30 to 8.30,"CNC1CCN(c2ccc(-c3cc(C4CC4)cc(Nc4cc(C#N)ccn4)n3)cn2)CC1 [Example 29, 2-({4-cyclopropyl-6′-[4-(methylamino)piperidin-1-yl]-2,3′-bipyridin-6-yl}amino)pyridine-4-carbonitrile dihydrochloride]"
21,6.30 to 7.30,"N#Cc1ccnc(Nc2cc(C3CC3)cc(-c3ccc(N4CCC(F)CC4)nc3)n2)c1 [Example 30, 2-{[4-cyclopropyl-6′-(4-fluoropiperidin-1-yl)-2,3′-bipyridin-6-yl]amino}pyridine-4-carbonitrile hydrochloride]"
22,7.30 to 8.30,"N#Cc1ccnc(Nc2cc(C3CC3)cc(-c3ccc(N(CCO)CCO)nc3)n2)c1 [Example 31, 2-({6′-[bis(2-hydroxyethyl)amino]-4-cyclopropyl-2,3′-bipyridin-6-yl}amino)pyridine-4-carbonitrile hydrochloride]"
23,7.30 to 8.30,"N#Cc1ccnc(Nc2cc(C3CC3)cc(-c3ccc(N4CCCNCC4)nc3)n2)c1 [Example 32, 2-{[4-cyclopropyl-6′-(1,4-diazepan-1-yl)-2,3′-bipyridin-6-yl]amino}pyridine-4-carbonitrile dihydrochloride]"
24,7.30 to 8.30,"N#Cc1ccnc(Nc2cc(C3CC3)cc(-c3ccc(N4CCC[C@H](O)C4)nc3)n2)c1 [Example 33, 2-({4-cyclopropyl-6′-[(3S)-3-hydroxypiperidin-1-yl]-2,3′-bipyridin-6-yl}amino)pyridine-4-carbonitrile hydrochloride]"

row,Structure (SMILES),pIC50
1,"Cn1cnc2cc(-c3cc(C4CC4)cc(Nc4cc(C#N)ccn4)n3)ccc21 [Example 15, 2-{[4-cyclopropyl-6-(1-methyl-1H-benzimidazol-5-yl)pyridin-2-yl]amino}pyridine-4-carbonitrile hydrocloride]",7.30 to 8.30
